Experimental data reported in US20230128252A1, “PHARMACEUTICAL COMPOSITIONS” (Shenzhen Pharmacin Co., Ltd., priority 2020, published 2023).
In brackets after ≈: the same amount, converted by molar mass.

Key:
[1] = Skin permeability of clofazimine preparations (vertical Franz diffusion cells); type: in vitro ADME, NU/NU nude mice
[2] = cited from earlier work
[3] = molecular target: Kv1.3 channels in human Jurkat E6-1 cells (Homo sapiens, UniProt P22001); experiment: Inhibition of Kv1.3 channel current, voltage ramp protocol; conditions: for Inhibition ratio of Kv1.3 channel current in Jurkat E6-1 cells: n 3
Chain of Kv1.3 channels in human Jurkat E6-1 cells (P22001 whole entry): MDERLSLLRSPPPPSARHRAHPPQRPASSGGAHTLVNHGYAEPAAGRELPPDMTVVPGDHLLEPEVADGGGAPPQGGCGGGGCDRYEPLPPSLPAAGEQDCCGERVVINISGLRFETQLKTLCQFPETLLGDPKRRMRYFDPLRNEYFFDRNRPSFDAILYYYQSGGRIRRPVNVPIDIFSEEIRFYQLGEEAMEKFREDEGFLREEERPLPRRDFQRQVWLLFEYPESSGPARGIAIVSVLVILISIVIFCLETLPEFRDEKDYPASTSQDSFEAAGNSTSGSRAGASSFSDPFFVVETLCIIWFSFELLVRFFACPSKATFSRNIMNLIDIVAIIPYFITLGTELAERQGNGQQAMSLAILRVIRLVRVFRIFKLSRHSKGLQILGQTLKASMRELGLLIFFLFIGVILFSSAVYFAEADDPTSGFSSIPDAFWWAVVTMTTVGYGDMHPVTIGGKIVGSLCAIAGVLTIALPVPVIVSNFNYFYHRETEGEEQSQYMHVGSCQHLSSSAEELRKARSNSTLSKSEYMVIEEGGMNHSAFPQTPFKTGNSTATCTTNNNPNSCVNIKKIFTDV

[4] = system: IL-2 secretion of activated Jurkat cells; experiment: Inhibition of IL-2 secretion of activated Jurkat cells (ELISA); type: cell-based; conditions: 1 μM, 3 μM, and 10 μM in DMSO; PMA+PHA activated; 24 h (FIG. 11)
Description: In each group, Jurkat cells were incubated with corresponding formulation. After 24 h, the secretion of IL-2 was detected by ELISA.

[5] = system: chronic discoid lupus erythematosus; conditions: human clinical study; cited from earlier work
[6] = Solubility of clofazimine in various solvents; conditions: 25 °C, thermodynamic from solid
Description: Clofazimine was added to various solvents (2-5 mL) in a 10 mL glass vial, at 25° C., with stirring. […] This cycle was repeated until no further dissolution was observable. The suspension was then centrifuged and the supernatant filtered by microfiltration.

With `CC(C)/N=c1\cc2n(-c3ccc(Cl)cc3)c3ccccc3nc-2cc1Nc1ccc(Cl)cc1` [Clofazimine, N,5-bis(4-chlorophenyl)-3-propan-2-ylimino phenazin-2-amine] the clofazimine content ([1]; gel: clofazimine 0.1, Carbomer 940 0.5, Transcutol 20 wt %, pH 7.0, penetration enhancer 4 wt %: Oleic acid) was 0.2344 ug/cm^2, the clofazimine content ([1]; gel: clofazimine 0.1, Carbomer 940 0.5, Transcutol 20 wt %, pH 7.0, penetration enhancer 4 wt %: SDS (0.05%)) was 0.1829 ug/cm^2 and the clofazimine content ([1]; gel: clofazimine 0.1, Carbomer 940 0.5, Transcutol 20 wt %, pH 7.0, penetration enhancer 4 wt %: Tween 20) was 0.1535 ug/cm^2. For the same compound, the clofazimine content ([1]; gel: clofazimine 0.1, Carbomer 940 0.5, Transcutol 20 wt %, pH 7.0, penetration enhancer 4 wt %: Tween 80) was 0.2484 ug/cm^2, the clofazimine content ([1]; gel: clofazimine 0.1, Carbomer 940 0.5 wt %, pH 7.0, solvent 10 wt % PEG 400, 4 hours) was 1.6000 ug/cm^2 and the clofazimine content ([1]; gel: clofazimine 0.1, Carbomer 940 0.5 wt %, pH 7.0, solvent 10 wt % Transuctol, 4 hours) was 0.1894 ug/cm^2. For the same compound, the clofazimine content ([1]; gel: clofazimine 0.1, Carbomer 940 0.5 wt %, pH 7.0, solvent 10 wt % Tween 80, 4 hours) was 0.9800 ug/cm^2, the clofazimine content ([1]; gel: clofazimine 0.1, Carbomer 940 0.5 wt %, pH 7.0, solvent 10 wt % labrasol, 4 hours) was 0.8200 ug/cm^2 and the clofazimine content ([1]; gel: clofazimine 0.1, Transcutol 20, Lecithin 5 wt %, pH 7.0, Carbomer 940 amount 0.5%) was 0.4871 ug/cm^2. The clofazimine content ([1]; gel: clofazimine 0.1, Transcutol 20, Lecithin 5 wt %, pH 7.0, Carbomer 940 amount 0.8%) was 0.3054 ug/cm^2, the clofazimine content ([1]; gel: clofazimine 0.1, Transcutol 20, Lecithin 5 wt %, pH 7.0, Carbomer 940 amount 1.0%) was 0.3205 ug/cm^2 and the clofazimine content ([1]; inner skin, 4 hours, solution, clofazimine 100 mg in 99.9 g Ethanol) was 0.5565 ug/cm^2. It also gave a clofazimine content ([1]; inner skin, 4 hours, solution, clofazimine 100 mg in 99.9 g KHS-15) of 0.0660 ug/cm^2, a clofazimine content ([1]; inner skin, 4 hours, solution, clofazimine 100 mg in 99.9 g Laurocapram) of 0.3593 ug/cm^2 and a clofazimine content ([1]; inner skin, 4 hours, solution, clofazimine 100 mg in 99.9 g Oleic acid) of 0.0577 ug/cm^2. The clofazimine content ([1]; inner skin, 4 hours, solution, clofazimine 100 mg in 99.9 g PEG 400) was 0.1174 ug/cm^2, the clofazimine content ([1]; inner skin, 4 hours, solution, clofazimine 100 mg in 99.9 g Transuctol) was 0.0596 ug/cm^2 and the clofazimine content ([1]; inner skin, 4 hours, solution, clofazimine 100 mg in 99.9 g Tween 20) was 0.0639 ug/cm^2. For the same compound, the clofazimine content ([1]; inner skin, 4 hours, solution, clofazimine 100 mg in 99.9 g Tween 80) was 0.0660 ug/cm^2, the “Log P” value [2] was 7.48 and the pKa [2] was 8.37. For the same compound, the Water solubility ([2]; virtually insoluble) was 0.225 µg/mL, the IC50 [3] was 3.3 µM and the “Inhibition ratio of Kv1.3 channel current in Jurkat E6-1 cells” value (from here on “Inhibition ratio”) ([3]; 0.3 μM) was 7.09 ± 0.86%. For the same compound, the “Inhibition ratio” value ([3]; 1 μM) was 18.89 ± 3.38%, the “Inhibition ratio” value ([3]; 3 μM) was 46.84 ± 4.55% and the “Inhibition ratio” value ([3]; 10 μM) was 70.11 ± 2.91%. The “Inhibition ratio” value ([3]; 20 μM) was 83.62 ± 1.99%, the “secretion of IL-2” value [4] was “significantly inhibited” and the “remission of chronic discoid lupus erythematosus” value [5] was “a majority of patients showed remission”. For the same compound, the solubility at 24 h ([6]; organic solvent or mixture) was 7480 µg/mL (≈ 15.8 mM), the solubility at 24 h ([6]; solvent, oil or lipid, Solubility, Castor oil) was 11000 µg/mL (≈ 23.3 mM) and the solubility at 24 h ([6]; solvent, oil or lipid, Solubility, Coconut oil) was 5100 µg/mL (≈ 10.8 mM). For the same compound, the solubility at 24 h ([6]; solvent, oil or lipid, Solubility, Corn oil) was 5800 µg/mL (≈ 12.3 mM), the solubility at 24 h ([6]; solvent, oil or lipid, Solubility, Glyceryl monooleate) was 8860 µg/mL (≈ 18.7 mM) and the solubility at 24 h ([6]; solvent, oil or lipid, Solubility, Isopropyl myristate) was 8510 µg/mL (≈ 18 mM). The solubility at 24 h ([6]; solvent, oil or lipid, Solubility, Soybean oil) was 5100 µg/mL (≈ 10.8 mM), the solubility at 24 h ([6]; solvent, organic solvent or mixture, Solubility, Ethanol) was 950 µg/mL (≈ 2.01 mM) and the solubility at 24 h ([6]; solvent, organic solvent or mixture, Solubility, Glycerol) was 490 µg/mL (≈ 1.04 mM). It also gave a solubility at 24 h ([6]; solvent, organic solvent or mixture, Solubility, Labrasol) of 25400 µg/mL (≈ 53.6 mM), a solubility at 24 h ([6]; solvent, organic solvent or mixture, Solubility, Laurocapram) of 46700 µg/mL (≈ 98.7 mM) and a solubility at 24 h ([6]; solvent, organic solvent or mixture, Solubility, Oleic acid polyethylene glycol glyceride) of 12200 µg/mL (≈ 25.8 mM). The solubility at 24 h ([6]; solvent, organic solvent or mixture, Solubility, PEG 400, 25° C.) was 9510 µg/mL (≈ 20.1 mM), the solubility at 24 h ([6]; solvent, organic solvent or mixture, Solubility, Polyglycerol fatty acid ester) was 4960 µg/mL (≈ 10.5 mM) and the solubility at 24 h ([6]; solvent, organic solvent or mixture, Solubility, Polyoxyethylene hydrogenated castor oil) was 8670 µg/mL (≈ 18.3 mM). The solubility at 24 h ([6]; solvent, organic solvent or mixture, Solubility, Propane 1,2-diol) was 420 µg/mL (≈ 0.887 mM), the solubility at 24 h ([6]; solvent, organic solvent or mixture, Solubility, Transcutol) was 21600 µg/mL (≈ 45.5 mM) and the solubility at 24 h ([6]; solvent, organic solvent or mixture, Solubility, Tween 20, 25° C.) was 7400 µg/mL (≈ 15.6 mM). It also gave a solubility at 24 h ([6]; solvent, organic solvent or mixture, Solubility, Tween 80, 25° C.) of 10100 µg/mL (≈ 21.3 mM).
